From patent US20230190728A1, “NEW THERAPEUTIC USES OF COMPOUNDS” (PROXIMAGEN, LLC, priority 2020, published 2023)

Test system: male C57BI/6 mice
Assay: LPS-Induced Pulmonary Inflammation Study
Type: in vivo
Conditions: for average lavage TNFα: lavage supernatant, ELISA
Method: This study was to test the efficacy of orally administered compounds as disclosed herein to reduce LPS-induced inflammatory cell infiltration of the lungs, and was carried out in male C57BI/6 mice.
Day 11: Groups 1 and 2 were administered 10% HP-β-CD. Group 3: 7.59 mg dexamethasone 21-phosphate disodium salt (Sigma, Cat. D1159, lot 88H1020, SF 1.316) was dissolved in […] HP-β-CD to prepare a 0.2 mg/mL solution. Group 4: 1 mg Example 7 was dissolved in 4.5 mL HP-β-CD and 7 µL 1 M HCI (MP Biomedicals, Cat. 194055, lot 3956H) with alternating sonication and vortexing. The pH was adjusted by addition of 5 µL 1 M NaOH and the volume brought up to 5 mL with 0.488 mL HP-β-CD to yield a 0.2 mg/mL solution. Group 5: 3 mg Example 7 was dissolved in 4.5 mL HP-β-CD and 20 µL 1 M HCI with alternating sonication and vortexing. The pH was adjusted by addition of 16 µL 1 M NaOH and the volume brought up to 5 mL with 0.464 mL HP-β-CD to yield a 0.6 mg/ mL solution. Group 6: 10 mg Example 7 was dissolved in 4.5 mL HP-β-CD and 66 µL 1 M HCI with alternating sonication and vortexing. The pH was adjusted by addition of 53 µL 1 M NaOH and the volume brought up to 5 mL with 0.381 mL HP-β-CD to yield a 2 mg/mL solution.
25.7 mg lipopolysaccharides (LPS) from E. coli strain 055:B5 (Sigma, Cat. L2880, lot 025M4040V) was dissolved in 2.57 mL sterile saline (Hospira, lot 56-836-FW) to prepare a 10 mg/mL solution.
The mice were numbered, weighed, and dosed orally at 10 mL/kg as in Table 5.
An hour later, the mice were anesthetized, a midline incision was made in the neck, the muscle layers separated by blunt dissection, and 2 mL/kg LPS (20 mg/kg) injected into the trachea (Groups 2-6). The incision was closed with wound clips and the mice returned to cages. Group 1 received 2 mL/kg saline.
Six hours after LPS/saline injection, the mice were anesthetized, the wound clips removed, the trachea was cannulated with a 23 G needle blunt, and the lungs lavaged eight times with 0.5 mL heparinized saline. The lavage was pooled, gently inverted, and a sample retained for white blood cell (WBC) counts and differential analysis. The remainder of the lavage was centrifuged, the supernatants dispensed to one aliquot in labelled Eppendorf tubes which were stored at -80° C. The carcasses were disposed of appropriately.
Day 14: The aliquot of lung lavage supernatant was equilibrated to room temperature, diluted 1:2 and assayed for TNFα by ELISA (R&D Systems, Cat. MTA00B, lot 332141).

[1] = 2 mg/kg oral, one hour pre-treatment (Group 4), did not reach statistical significance
[2] = 6 mg/kg oral, one hour pre-treatment (Group 5)
[3] = 20 mg/kg oral, one hour pre-treatment (Group 6)

CS(=O)(=O)N1CCN(c2ccc(-c3nc4ccncc4n3-c3ccc(F)cc3)cn2)CC1 [Example 7, 1-{5-[3-(4-Fluorophenyl)-3H-Imidazo[4,5-C]Pyridin-2-Yl]Pyridin-2-Yl}-4-Methanesulfonylpiperazine]
reduction in infiltrating inflammatory cells [1]: 3%
reduction in lavage TNFα content [1]: 10%
reduction in neutrophils in the lavage fluid [1]: 27%
reduction in neutrophils in the lavage fluid (6 mg/kg oral, one hour pre-treatment): 97%
reduction in infiltrating inflammatory cells [2]: 70%
reduction in lavage TNFα content [2]: 65%
reduction in neutrophils in the lavage fluid (20 mg/kg oral, one hour pre-treatment): 97%
reduction in infiltrating inflammatory cells [3]: 93%
reduction in lavage TNFα content [3]: 74%
effect of one hour oral pre-treatment on all measured parameters (2, 6, 20 mg/kg oral prior to LPS challenge, in words): significant dose-dependent reduction in all measured parameters
effect of oral pre-treatment on LPS-induced pulmonary Neutrophil infiltration (FIG. 1, in words): decreases neutrophil infiltration in lung tissue
effect of oral pre-treatment on LPS-induced pulmonary lavage TNFa content (FIG. 2, in words): decreases TNFa content in pulmonary lavage
average lavage TNFα (Group 4, 2 mg/kg oral 1 h before LPS, Mean SD): 337.00 pg/mL
Neutrophils (Group 4, 2 mg/kg oral 1 h before LPS, lung lavage 6 h after LPS, Mean SD): 583 204
average lavage TNFα (Group 5, 6 mg/kg oral 1 h before LPS, Mean SD): 132.90 pg/mL
average lavage TNFα (Group 6, 20 mg/kg oral 1 h before LPS, Mean SD): 98.87 pg/mL
